In the experiment the target is T1, LPA1 (Homo sapiens, UniProt Q92633).
T1 construct: ProLink (PK) beta-galactosidase enzyme-fragment tag; host or cells: CHO-K1
T1 sequence (Q92633 whole entry, the tested form may be a part): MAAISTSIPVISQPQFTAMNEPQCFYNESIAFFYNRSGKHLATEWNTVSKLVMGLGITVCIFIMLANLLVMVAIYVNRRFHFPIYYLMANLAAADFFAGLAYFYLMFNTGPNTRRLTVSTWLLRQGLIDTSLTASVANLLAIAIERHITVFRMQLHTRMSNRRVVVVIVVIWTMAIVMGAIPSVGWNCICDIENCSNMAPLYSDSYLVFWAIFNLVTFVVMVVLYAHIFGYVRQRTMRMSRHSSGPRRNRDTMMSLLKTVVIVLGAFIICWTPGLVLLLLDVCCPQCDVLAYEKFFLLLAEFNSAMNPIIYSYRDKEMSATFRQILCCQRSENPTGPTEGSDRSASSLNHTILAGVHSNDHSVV
As to the kind of experiment: LPA1 calcium flux assay (LPA1 functional antagonist assay). The format is cell-based. As to conditions: PathHunter CHO-K1 EDG2 β-Arrestin cell line; calcium indicator dye; stimulated with EC80 concentration of LPA; FLIPR Tetra. The method in brief: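 The LPA1 antagonist readout was intracellular calcium flux, and IC50 values were calculated from it. Plates stood 30 min at RT after compound addition. Cells, grown overnight, had first taken up calcium dye over 45 min at 37 °C.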
A general note: A change in cytosolic calcium serves as a functional read-out for many receptors and channels.
The IC50 is the concentration at which inhibition is half-maximal. For `CCc1nc(-c2cnn(C)c2Cn2ncc(CC3CC3)n2)ncc1N1C[C@@H](CC(=O)O)CC(F)(F)C1` [Example 136, (S)-2-(1-(2-(5-((4-(cyclopropylmethyl)-2H-1,2,3-triazol-2-yl)methyl)-1-methyl-1H-pyrazol-4-yl)-4-ethylpyrimidin-5-yl)-5,5-difluoropiperidin-3-yl)acetic acid], the IC50 lay in the range of 100 to 500 nM.
On to `CCCc1ccc(=O)n(Cc2c(-c3ccc(N4CCC[C@@H](CC(=O)O)C4)c(CC)n3)nnn2C)c1` [Example 23, (S)-2-(1-(2-ethyl-6-(1-methyl-5-((2-oxo-5-propylpyridin-1(2H)-yl)methyl)-1H-1,2,3-triazol-4-yl)pyridin-3-yl)piperidin-3-yl)acetic acid], for which the IC50 was over 5000 nM.
The same measure for `CCc1nc(-c2nnn(C)c2Cn2ccc(CC3CC3)cc2=O)ccc1N1C[C@@H](CC(=O)O)CC(F)(F)C1` [Example 9, (S)-2-(1-(6-(5-((4-(cyclopropyImethyl)-2-oxopyridin-1(2H)-yl)methyl)-1-methyl-1H-1,2,3-triazol-4-yl)-2-ethylpyridin-3-yl)-5,5-difluoropiperidin-3-yl)acetic acid]: over 5000 nM.
Take `CCCn1cc(OCc2c(-c3ccc(N4C[C@@H](CC(=O)O)CC(F)(F)C4)c(CC)n3)nnn2C)c(=O)cn1` [Example 109, (S)-2-(1-(2-ethyl-6-(1-methyl-5-(((5-oxo-2-propyl-2,5-dihydropyridazin-4-yl)oxy)methyl)-1H-1,2,3-triazol-4-yl)pyridin-3-yl)-5,5-difluoropiperidin-3-yl)acetic acid]: the IC50 lay in the range of 500 to 5000 nM.
Next, `CCCc1cnc(=O)n(Cc2c(-c3ncc(N4C[C@@H](CC(=O)O)CC(F)(F)C4)c(CC)n3)cnn2C)c1` [Example 38, (S)-2-(1-(4-ethyl-2-(1-methyl-5-((2-oxo-5-propylpyrimidin-1(2H)-yl)methyl)-1H-pyrazol-4-yl)pyrimidin-5-yl)-5,5-difluoropiperidin-3-yl)acetic acid]: over 5000 nM; `Cn1nnc(-c2ccc(N3CCC[C@H](CC(=O)O)C3)c(C(F)F)n2)c1Cn1cc(CC2CC2)nn1` [Example 169, (R)-2-(1-(6-(5-((4-(cyclopropylmethyl)-1H-1,2,3-triazol-1-yl)methyl)-1-methyl-1H-1,2,3-triazol-4-yl)-2-(difluoromethyl)pyridin-3-yl)piperidin-3-yl)acetic acid]: 100 to 500 nM; `Cc1nc(-c2nnn(C)c2COc2nccc(C3CC3)n2)ccc1N1C[C@@H](CC(=O)O)CC(F)(F)C1` [Example 75, (S)-2-(1-(6-(5-(((4-cyclopropylpyrimidin-2-yl)oxy)methyl)-1-methyl-1H-1,2,3-triazol-4-yl)-2-methylpyridin-3-yl)-5,5-difluoropiperidin-3-yl)acetic acid]: 500 to 5000 nM.
As to `CCc1nc(-c2nnn(C)c2COc2cc(C3CCC3)ncn2)ccc1N1CCC[C@H](CC(=O)O)C1` [Example 80, (R)-2-(1-(6-(5-(((6-cyclobutylpyrimidin-4-yl)oxy)methyl)-1-methyl-1H-1,2,3-triazol-4-yl)-2-ethylpyridin-3-yl)piperidin-3-yl)acetic acid], the IC50 is under 100 nM.
The same measure for `Cn1nnc(-c2ccc(N3CCC[C@H](CC(=O)O)C3)c(C(F)F)n2)c1Cn1ncc(CC2CC2)n1` [Example 167, (R)-2-(1-(6-(5-((4-(cyclopropylmethyl)-2H-1,2,3-triazol-2-yl)methyl)-1-methyl-1H-1,2,3-triazol-4-yl)-2-(difluoromethyl)pyridin-3-yl)piperidin-3-yl)acetic acid]: under 100 nM; for `CCc1nc(-c2nnn(C)c2Cn2ccc(C#CC3CC3)cc2=O)ccc1N1C[C@@H](CC(=O)O)CC(F)(F)C1` [Example 20, (S)-2-(1-(6-(5-((4-(cyclopropylethynyl)-2-oxopyridin-1(2H)-yl)methyl)-1-methyl-1H-1,2,3-triazol-4-yl)-2-ethylpyridin-3-yl)-5,5-difluoropiperidin-3-yl)acetic acid]: over 5000 nM.
The same measure for `Cc1nc(-c2nnn(C)c2COc2cc(-n3nccn3)ccn2)ccc1N1CCC[C@H](CC(=O)O)C1` [Example 104, (R)-2-(1-(6-(5-(((4-(2H-1,2,3-triazol-2-yl)pyridin-2-yl)oxy)methyl)-1-methyl-1H-1,2,3-triazol-4-yl)-2-methylpyridin-3-yl)piperidin-3-yl)acetic acid]: under 100 nM; for `CCCc1ccc(=O)n(Cc2c(-c3cc(F)c(N4CCCC(CC(=O)O)C4)c(C)n3)nnn2C)c1` (stereo not drawn) [Example 47, 2-(1-(4-fluoro-2-methyl-6-(1-methyl-5-((2-oxo-5-propylpyridin-1(2H)-yl)methyl)-1H-1,2,3-triazol-4-yl)pyridin-3-yl)piperidin-3-yl)acetic acid]: over 5000 nM.
Take `CCc1nc(-c2nnn(C)c2COc2nccc(C3CCC3)n2)ccc1CN1CC(C(=O)O)CC(F)(F)C1` (single isomer, unassigned) [Example 153, (R) or (S)-1-((6-(5-(((4-cyclobutylpyrimidin-2-yl)oxy)methyl)-1-methyl-1H-1,2,3-triazol-4-yl)-2-ethylpyridin-3-yl)methyl)-5,5-difluoropiperidine-3-carboxylic acid]: the IC50 lay within 500 to 5000 nM.
With `Cc1nc(-c2nnn(C)c2COC(=O)N(C)CC2CC2)ccc1N1C[C@@H](CC(=O)O)CC(F)(F)C1` [Example 140, (S)-2-(1-(6-(5-((((cyclopropylmethyl)(methyl)carbamoyl)oxy)methyl)-1-methyl-1H-1,2,3-triazol-4-yl)-2-methylpyridin-3-yl)-5,5-difluoropiperidin-3-yl)acetic acid], the IC50 lay within 100 to 500 nM.
The same measure for `CCc1nc(-c2cnn(C)c2Cn2nncc2CC2CC2)ncc1N1C[C@@H](CC(=O)O)CC(F)(F)C1` [Example 134, (S)-2-(1-(2-(5-((5-(cyclopropylmethyl)-1H-1,2,3-triazol-1-yl)methyl)-1-methyl-1H-pyrazol-4-yl)-4-ethylpyrimidin-5-yl)-5,5-difluoropiperidin-3-yl)acetic acid]: 100 to 500 nM.
For `CCCN(C)C(=O)OCc1c(-c2ccc(N3C[C@@H](CC(=O)O)CC(F)(F)C3)c(CC)n2)nnn1C` [Example 146, (S)-2-(1-(2-ethyl-6-(1-methyl-5-(((methyl(propyl)carbamoyl)oxy)methyl)-1H-1,2,3-triazol-4-yl)pyridin-3-yl)-5,5-difluoropiperidin-3-yl)acetic acid], the IC50 was over 5000 nM.
The same measure for `CCCn1nc(OCc2c(-c3ccc(N4C[C@@H](CC(=O)O)CC(F)(F)C4)c(C)n3)nnn2C)ccc1=O` [Example 108, (S)-2-(5,5-difluoro-1-(2-methyl-6-(1-methyl-5-(((6-oxo-1-propyl-1,6 dihydropyridazin-3-yl)oxy)methyl)-1H-1,2,3-triazol-4-yl)pyridin-3-yl)piperidin-3-yl)acetic acid]: 500 to 5000 nM.
Next, `CCCc1ccc(=O)n(Cc2c(-c3ccc(N4C[C@@H](CC(=O)O)CC(F)(F)C4)c(C)n3)nnn2C)c1` [Example 4, (S)-2-(5,5-difluoro-1-(2-methyl-6-(1-methyl-5-((2-oxo-5-propylpyridin-1(2H)-yl)methyl)-1H-1,2,3-triazol-4-yl)pyridin-3-yl)piperidin-3-yl)acetic acid]: 100 to 500 nM.

These data come from US12780800B1, “Triazole-pyridinyl substituted azacyclohexyl acetic acid compounds as LPA receptor antagonists” (Viva Star Biosciences Limited, priority 2021, dated 2022).
